The values that follow come from patent US5096817A, “Process for producing antibiotics BU-3608 D and BU-3608 E” (Bristol-Myers Company, priority 1990, dated 1992).

For one series, the system named is Candida albicans A9540. Nature of the series: in vivo antifungal activity against C. albicans A9540 intravenous infection in mice. Also on record: species or system male ICR mice. To be noted: for Number of survivors/tested: 20th day; for ED50: Candida albicans, A9540, 480 h, intravenous, from survival rates on the 20th day, read-out: PD50 (dose that protects 50% of the animals from infection). How it is done: In vivo activity of BU-3608 E was tested against Candida albicans A9540 infection in mice. Test organisms were cultured for 18 hours at 28° C. in YGP medium (yeast extract, glucose, peptone, K2 HPO4, MgSO4) and then suspended in saline. Male ICR mice weighing 20 to 24 g were infected intravenously with about 10 times the median lethal dose of the test fungus. The antibiotic at various dose levels was administered to groups of 5 mice each intravenously just after the fungal infection. The dose that protects 50% of the animals from infection (PD50, mg/kg) was calculated from survival rates recorded on the 20th day after the fungal challenge. All control animals died within 7 to 15 days after infection. The PD50 for BU-3608 D against the same organism and using the same test protocol as described above is 9 mg/kg/inj.

A short description of series [1]: acute toxicity in mice after single intravenous administration. To be noted: mouse, in vivo. How it is done: The acute toxicity of BU-3608 D was determined in mice after single intraveneous administration.

Take `COc1cc(O)c2c(c1)C(=O)c1c(cc3c(c1O)-c1c(cc(C)c(C(=O)NCC(=O)O)c1O)[C@H](O[C@@H]1O[C@H](C)[C@H](N)[C@H](O[C@@H]4OC[C@@H](O)[C@H](O)[C@H]4O)[C@H]1O)[C@H]3O)C2=O` [BU-3608 E]: the Number of survivors/tested is 0/5 in the series on Candida albicans A9540 (1.6 mg/kg/inj. intravenously just after infection); 0/5 in the series with Candida albicans A9540 (3.1 mg/kg/inj. intravenously just after infection); 1/5 in the series with Candida albicans A9540 (6.3 mg/kg/inj. intravenously just after infection); 4/5 in the series on Candida albicans A9540 (12.5 mg/kg/inj. intravenously just after infection); 5/5 in the series with Candida albicans A9540 (25 mg/kg/inj. intravenously just after infection); 5/5 in the series on Candida albicans A9540 (50 mg/kg/inj. intravenously just after infection). The ED50 in the series on Candida albicans A9540 stood at 8.9 mg/kg.

The LD50 is the dose expected to kill half of the subjects tested. Lower therefore signals greater toxicity. In the case of `CN[C@@H]1[C@H](O[C@@H]2OC[C@@H](O)[C@H](O)[C@H]2O)[C@@H](O)[C@H](O[C@H]2c3cc(C)c(C(=O)NCC(=O)O)c(O)c3-c3c(cc4c(c3O)C(=O)c3cc(OC)cc(O)c3C4=O)[C@@H]2O)O[C@@H]1C` [BU-3608 D], in the series on Candida albicans A9540, the ED50 is 9 mg/kg. The same molecule gave an LD50 in series [1] of 210 mg/kg.
